Assay results as given in patent US11208400B2, “Substituted 6-(1H-pyrazol-1-yl)pyrimidin-4-amine derivatives and uses thereof” (Bayer Aktiengesellschaft, priority 2016, dated 2021).

molecular target: T1, human Npt2a (Homo sapiens, UniProt Q06495); test: Npt2a activity cell based assay, membrane potential dye, CHO T-REx hNpt2a cells; conditions: doxycycline-induced, depolarization by sodium phosphate influx, average or median values if tested more than once
T1 construct: expressed in transfected cells
T1 sequence (Q06495 1-639): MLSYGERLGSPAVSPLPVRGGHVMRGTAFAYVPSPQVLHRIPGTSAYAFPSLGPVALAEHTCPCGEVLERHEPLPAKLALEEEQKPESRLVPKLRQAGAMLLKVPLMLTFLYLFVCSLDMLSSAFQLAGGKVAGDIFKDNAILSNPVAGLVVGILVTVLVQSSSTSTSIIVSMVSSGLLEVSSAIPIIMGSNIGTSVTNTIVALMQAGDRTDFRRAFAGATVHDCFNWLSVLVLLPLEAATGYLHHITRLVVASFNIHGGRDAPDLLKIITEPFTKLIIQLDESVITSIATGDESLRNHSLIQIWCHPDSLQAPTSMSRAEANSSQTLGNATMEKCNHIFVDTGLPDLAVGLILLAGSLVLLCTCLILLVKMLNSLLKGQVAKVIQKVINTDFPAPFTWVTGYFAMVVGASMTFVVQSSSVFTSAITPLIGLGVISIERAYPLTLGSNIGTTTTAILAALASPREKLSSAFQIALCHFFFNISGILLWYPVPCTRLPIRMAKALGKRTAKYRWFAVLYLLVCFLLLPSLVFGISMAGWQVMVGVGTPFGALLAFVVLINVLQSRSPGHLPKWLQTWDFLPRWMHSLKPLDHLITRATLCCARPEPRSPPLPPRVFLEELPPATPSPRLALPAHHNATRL
Method in brief: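 Doxycycline-induced (0.5 μg/mL, 24 h) CHO T-REx cells were loaded with membrane potential dye in sodium-free NHE buffer (pH 7.4) and exposed to compound (50 μM–1 nM, 5 min, room temperature).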

SMILES	IC50
CCOC(=O)c1c(Cl)c(C)nn1-c1cc(Nc2nn(C)c(-c3ccc(F)cc3)c2C)ncn1 [Example 259, ethyl 4-chloro-1-(6-{[5-(4-fluorophenyl)-1,4-dimethyl-1H-pyrazol-3-yl]amino}pyrimidin-4-yl)-3-methyl-1H-pyrazole-5-carboxylate]	0.05 µM
Cc1nn(-c2cc(Nc3c(C)c(-c4ccc(C#N)cc4)nn3CC3CC3)ncn2)c(C)c1C#N [Example 352, 1-(6-{[3-(4-cyanophenyl)-1-(cyclopropylmethyl)-4-methyl-1H-pyrazol-5-yl]amino}pyrimidin-4-yl)-3,5-dimethyl-1H-pyrazole-4-carbonitrile]	0.025 µM
Cc1nn(-c2cc(Nc3c(C)c(-c4ccc(OC(F)(F)F)cc4)nn3CC3CC3)ncn2)c(C(C)(C)O)c1Cl [Example 290, 2-{4-chloro-1-[6-({1-(cyclopropylmethyl)-4-methyl-3-[4-(trifluoromethoxy)phenyl]-1H-pyrazol-5-yl}amino)pyrimidin-4-yl]-3-methyl-1H-pyrazol-5-yl}propan-2-ol]	0.17 µM
Cc1nn(-c2cc(Nc3c(C)c(-c4ccc(F)cc4)nn3CC3CC3)ncn2)c(C)c1OCC#N [Example 506, {[1-(6-{[1-(cyclopropylmethyl)-3-(4-fluorophenyl)-4-methyl-1H-pyrazol-5-yl]amino}pyrimidin-4-yl)-3,5-dimethyl-1H-pyrazol-4-yl]oxy}acetonitrile]	0.028 µM
Cc1nn(-c2cc(Nc3c(C)c(-c4ccc(F)cc4)nn3CC3CC3)ncn2)c(C)c1C(O)C(F)(F)F (racemic) [Example 374, (±)-1-[1-(6-{[1-(cyclopropylmethyl)-3-(4-fluorophenyl)-4-methyl-1H-pyrazol-5-yl]amino}pyrimidin-4-yl)-3,5-dimethyl-1H-pyrazol-4-yl]-2,2,2-trifluoroethanol]	0.063 µM
CCc1c(Nc2cc(-n3nc(C)cc3C)ncn2)nn(CCO)c1-c1ccc(F)cc1 [Example 111, 2-[3-{[6-(3,5-dimethyl-1H-pyrazol-1-yl)pyrimidin-4-yl]amino}-4-ethyl-5-(4-fluorophenyl)-1H-pyrazol-1-yl]ethanol]	0.36 µM
Cc1cc(C)n(-c2cc(Nc3c(C)c(-c4ccc(F)cc4)nn3CC3CC3)ncn2)n1 [Example 171, N-[1-(cyclopropylmethyl)-3-(4-fluorophenyl)-4-methyl-1H-pyrazol-5-yl]-6-(3,5-dimethyl-1H-pyrazol-1-yl)pyrimidin-4-amine]	0.012 µM
COc1ccc(-c2nn(C)c(Nc3cc(-n4nc(C)c(Cl)c4C)ncn3)c2C)cn1 [Example 505, 6-(4-chloro-3,5-dimethyl-1H-pyrazol-1-yl)-N-[3-(6-methoxypyridin-3-yl)-1,4-dimethyl-1H-pyrazol-5-yl]pyrimidin-4-amine]	1.2 µM
Cc1cc(C)n(-c2cc(Nc3c(C)c(-c4ccc(C#N)cc4)nn3C)ncn2)n1 [Example 197, 4-(5-{[6-(3,5-dimethyl-1H-pyrazol-1-yl)pyrimidin-4-yl]amino}-1,4-dimethyl-1H-pyrazol-3-yl)benzonitrile]	0.028 µM
CCc1c(Nc2cc(-n3cc(C(F)(F)F)cn3)ncn2)nn(C)c1-c1ccc(F)cc1 [Example 250, N-[4-ethyl-5-(4-fluorophenyl)-1-methyl-1H-pyrazol-3-yl]-6-[4-(trifluoromethyl)-1H-pyrazol-1-yl]pyrimidin-4-amine]	0.021 µM
COCCn1nc(-c2ccc(C(F)F)cc2)c(C)c1Nc1cc(-n2nc(C)c(C(=O)N(C)C)c2C)ncn1 [Example 558, 1-[6-({3-[4-(difluoromethyl)phenyl]-1-(2-methoxyethyl)-4-methyl-1H-pyrazol-5-yl}amino)pyrimidin-4-yl]-N,N,3,5-tetramethyl-1H-pyrazole-4-carboxamide]	0.08 µM
Cc1nn(-c2cc(Nc3c(C)c(-c4ccc(C(F)F)nc4)nn3CC3CC3)ncn2)c(C)c1C#N [Example 512, 1-[6-({1-(cyclopropylmethyl)-3-[6-(difluoromethyl)pyridin-3-yl]-4-methyl-1H-pyrazol-5-yl}amino)pyrimidin-4-yl]-3,5-dimethyl-1H-pyrazole-4-carbonitrile]	1.4 µM
CCOC(=O)c1c(C)nn(-c2cc(Nc3c(C)c(-c4ccc(C#N)cc4)nn3CC3CC3)ncn2)c1C [Example 149, ethyl 1-(6-{[3-(4-cyanophenyl)-1-(cyclopropylmethyl)-4-methyl-1H-pyrazol-5-yl]amino}pyrimidin-4-yl)-3,5-dimethyl-1H-pyrazole-4-carboxylate]	0.007 µM
Cc1nn(-c2cc(Nc3n[nH]c(-c4ccccc4)c3C)ncn2)c(C)c1Cl [Example 11, 6-(4-chloro-3,5-dimethyl-1H-pyrazol-1-yl)-N-(4-methyl-5-phenyl-1H-pyrazol-3-yl)pyrimidin-4-amine]	0.0503 µM
COc1c(C)nn(-c2cc(Nc3c(C)c(-c4ccc(C(F)(F)F)nc4)nn3C)ncn2)c1C [Example 551, N-{1,4-dimethyl-3-[6-(trifluoromethyl)pyridin-3-yl]-1H-pyrazol-5-yl}-6-(4-methoxy-3,5-dimethyl-1H-pyrazol-1-yl)pyrimidin-4-amine]	1.9 µM
COc1c(-c2ccc(F)cc2)nn(CC2CC2)c1Nc1cc(-n2nc(C)c(C(C)O)c2C)ncn1 (racemic) [Example 336, (±)-1-[1-(6-{[1-(cyclopropylmethyl)-3-(4-fluorophenyl)-4-methoxy-1H-pyrazol-5-yl]amino}pyrimidin-4-yl)-3,5-dimethyl-1H-pyrazol-4-yl]ethanol]	1.65 µM
Cc1nn(-c2cc(Nc3c(C)c(-c4ccc(F)cc4)nn3CC3CC3)ncn2)c(C)c1C1(O)CC1 [Example 244, 1-[1-(6-{[1-(cyclopropylmethyl)-3-(4-fluorophenyl)-4-methyl-1H-pyrazol-5-yl]amino}pyrimidin-4-yl)-3,5-dimethyl-1H-pyrazol-4-yl]cyclopropanol]	0.008 µM
Cc1nn(-c2cc(Nc3c(C)c(-c4ccc(F)cc4)nn3CC3CC3)ncn2)c(C)c1CN1CC(F)C1 [Example 452, N-[1-(cyclopropylmethyl)-3-(4-fluorophenyl)-4-methyl-1H-pyrazol-5-yl]-6-{4-[(3-fluoroazetidin-1-yl)methyl]-3,5-dimethyl-1H-pyrazol-1-yl}pyrimidin-4-amine]	0.016 µM
Cc1nn(-c2ccc(F)cc2)c(C)c1Nc1cc(-n2nc(C)c3ccccc32)ncn1 [Example 102, N-[1-(4-fluorophenyl)-3,5-dimethyl-1H-pyrazol-4-yl]-6-(3-methyl-1H-indazol-1-yl)pyrimidin-4-amine]	0.0073 µM
Cc1nn(-c2cc(Nc3c(C)c(-c4ccc(C#N)cc4)nn3CC3CC3)ncn2)c(C)c1C(O)C(F)(F)F (racemic) [Example 358, 4-{1-(cyclopropylmethyl)-5-[(6-{3,5-dimethyl-4-[(±)-2,2,2-trifluoro-1-hydroxyethyl]-1H-pyrazol-1-yl}pyrimidin-4-yl)amino]-4-methyl-1H-pyrazol-3-yl}benzonitrile]	0.01 µM
Cc1nn(-c2cc(Nc3nn(C)c(-c4ccc(F)cc4)c3OC(F)F)ncn2)c(C)c1Cl [Example 413, 6-(4-chloro-3,5-dimethyl-1H-pyrazol-1-yl)-N-[4-(difluoromethoxy)-5-(4-fluorophenyl)-1-methyl-1H-pyrazol-3-yl]pyrimidin-4-amine]	0.004 µM
COc1c(-c2ccc(C#N)cc2)nn(C)c1Nc1cc(-n2nc(C)cc2C(F)F)ncn1 [Example 411, 4-[5-({6-[5-(difluoromethyl)-3-methyl-1H-pyrazol-1-yl]pyrimidin-4-yl}amino)-4-methoxy-1-methyl-1H-pyrazol-3-yl]benzonitrile]	0.15 µM
CCOC(=O)c1c(C)nn(-c2cc(Nc3c(C)c(-c4ccc(Cl)cc4)nn3CC3CC3)ncn2)c1C [Example 314, ethyl 1-(6-{[3-(4-chlorophenyl)-1-(cyclopropylmethyl)-4-methyl-1H-pyrazol-5-yl]amino}pyrimidin-4-yl)-3,5-dimethyl-1H-pyrazole-4-carboxylate]	0.009 µM
COc1ccc(-c2nn(CC3CC3)c(Nc3cc(-n4nc(C)c(C#N)c4C)ncn3)c2C)cc1 [Example 483, 1-(6-{[1-(cyclopropylmethyl)-3-(4-methoxyphenyl)-4-methyl-1H-pyrazol-5-yl]amino}pyrimidin-4-yl)-3,5-dimethyl-1H-pyrazole-4-carbonitrile]	1.25 µM
Cc1c(-c2ccc(C#N)cc2)nn(CC2CC2)c1Nc1cc(-n2nc(C(C)C)cc2C)ncn1 [Example 286, 4-[1-(cyclopropylmethyl)-4-methyl-5-({6-[5-methyl-3-(propan-2-yl)-1H-pyrazol-1-yl]pyrimidin-4-yl}amino)-1H-pyrazol-3-yl]benzonitrile]	0.093 µM
CCc1c(-c2ccc(F)cc2)nn(CCOCc2ccccc2)c1Nc1cc(-n2nc(C)cc2C)ncn1 [Example 32, N-{1-[2-(benzyloxy)ethyl]-4-ethyl-3-(4-fluorophenyl)-1H-pyrazol-5-yl}-6-(3,5-dimethyl-1H-pyrazol-1-yl)pyrimidin-4-amine]	0.69 µM
CCOC(=O)c1c(C)nn(-c2cc(Nc3c(C)c(-c4ccc(F)cc4F)nn3CC3CC3)ncn2)c1C [Example 364, ethyl 1-(6-{[1-(cyclopropylmethyl)-3-(2,4-difluorophenyl)-4-methyl-1H-pyrazol-5-yl]amino}pyrimidin-4-yl)-3,5-dimethyl-1H-pyrazole-4-carboxylate]	0.005 µM
